Data set [1] in a line: SARA analysis of extracted bitumen samples. Particulars: bitumen extracted at 30° C. How it is done: The bitumen samples extracted at 30° C. from each oil sands sample were evaluated by SARA analysis to determine the saturates, aromatics, resins, and asphaltenes composition of the bitumen samples extracted by each solvent.
The nature of data set [2]: Incremental oil recovery from formation core after water-flooding. Particulars: after waterflooding with brine. How it is done: Incremental recovery of oil from a formation core using an oil recovery formulation consisting of dimethyl sulfide following oil recovery from the core by water-flooding was measured to evaluate the effectiveness of DMS as a tertiary oil recovery agent.
Two 5.02 cm long Berea sandstone cores with a core diameter of 3.78 cm and a permeability between 925 and 1325 mD were saturated with a brine having a composition as set forth in Table 7.
After saturation of the cores with brine, the brine was displaced by a Middle Eastern Asphaltic crude oil having the characteristics as set forth above in Table 3 to saturate the cores with oil.
Oil was recovered from each oil saturated core by the addition of brine to the core under pressure and by subsequent addition of DMS to the core under pressure. Each core was treated as follows to determine the amount of oil recovered from the core by addition of brine followed by addition of DMS. Oil was initially displaced from the core by addition of brine to the core under pressure. A confining pressure of 1 MPa was applied to the core during addition of the brine, and the flow rate of brine to the core was set at 0.05 ml/min. The core was maintained at a temperature of 50° C. during displacement of oil from the core with brine. […]

With `CSC` [Dimethyl Sulfide, dimethyl sulfide], the “extraction of / miscibility with asphaltenes” value in data set [1] is on record as “excellent miscibility properties”. Also, the “oil recovered of the oil remaining in the core after the waterflood” value in data set [2] is recorded as “approximately 60%”.
